We go through 20 compounds from patent US9944647B2 (Incyte Corporation, priority 2015, dated 2018).

The test has as its target LSD-1 enzyme (Homo sapiens (Human), UniProt O60341). Put plainly: LANCE LSD1/KDM1A demethylase assay (LSD1 histone demethylase biochemical assay). Particulars: 1 nM LSD-1 enzyme, 1 hour preincubation at 25° C., Biotin-labeled Histone H3 peptide substrate. The protocol:
Example A: LSD1 Histone Demethylase Biochemical Assay
LANCE LSD1/KDM1A demethylase assay—10 μL of 1 nM LSD-1 enzyme (ENZO BML-SE544-0050) in the assay buffer (50 mM Tris, pH 7.5, 0.01% Tween-20, 25 mM NaCl, 5 mM DTT) were preincubated for 1 hour at 25° C. with 0.8 μL compound/DMSO dotted in black 384 well polystyrene plates. […] Reactions were stopped by addition of 10 μL 1×LANCE Detection Buffer (PerkinElmer CR97-100) supplemented with 1.5 nM Eu-anti-unmodified H3K4 Antibody (PerkinElmer TRF0404), and 225 nM LANCE Ultra Streptavidin (PerkinElmer TRF102) along with 0.9 mM Tranylcypromine-HCl (Millipore 616431). After stopping the reactions plates were incubated for 30 minutes and read on a PHERAstar FS plate reader (BMG Labtech).
Background: TR-FRET usually uses a lanthanide donor and a delayed reading to cut background.
For orientation: IC50 means the point on the concentration scale where inhibition reaches its midpoint. The low end stands for inhibition by little substance, the high end for a need for much substance. With `Cc1cc(-c2c(-c3ccc(C#N)cc3)nc(N3CCC(N(C)C)CC3)n3ccnc23)cc(F)c1CO` [Example 89, 4-{5-[4-(dimethylamino)piperidin-1-yl]-8-[3-fluoro-4-(hydroxymethyl)-5-methylphenyl]imidazo[1,2-c]pyrimidin-7-yl}benzonitrile], the IC50 is no more than 50 nM. Compound `Cc1ncc(-c2c(-c3ccc(C#N)cc3)nc(N3CCC(N(C)C)CC3)n3ccnc23)cc1C(F)F` [Example 132, 4-{8-[5-(difluoromethyl)-6-methylpyridin-3-yl]-5-[4-(dimethylamino)piperidin-1-yl]imidazo[1,2-c]pyrimidin-7-yl}benzonitrile] returned an IC50 of 50 to 500 nM. The compound `CN1CCC[C@@H](COc2nc(-c3ccc(C#N)cc3)c(-c3cc(F)c4c(c3)oc(=O)n4C)c3nccn23)C1` [Example 59, 4-(8-(4-fluoro-3-methyl-2-oxo-2,3-dihydro-1,3-benzoxazol-6-yl)-5-{[(3R)-1-methylpiperidin-3-yl]methoxy}imidazo[1,2-c]pyrimidin-7-yl)benzonitrile] came in with an IC50 of no more than 50 nM. On to `CN1CC[C@@H](COc2nc(-c3ccc(C#N)cc3)c(-c3ccc(N4CCCC4)nc3)c3nccn23)C1` [Example 22, 4-[5-{[(3R)-1-methylpyrrolidin-3-yl]methoxy}-8-(6-pyrrolidin-1-ylpyridin-3-yl)imidazo[1,2-c]pyrimidin-7-yl]benzonitrile], for which the IC50 lay within 50 to 500 nM.

Take `COc1ncc(-c2c(-c3ccc(C#N)cc3)nc(OC[C@@H]3CCCN(C)C3)n3ccnc23)cc1C` [Example 69, 4-(8-(6-methoxy-5-methylpyridin-3-yl)-5-{[(3R)-1-methylpiperidin-3-yl]methoxy}imidazo[1,2-c]pyrimidin-7-yl)benzonitrile]: the IC50 is no more than 50 nM.

Compound `C[C@H](O)CN1CCC[C@@H](COc2nc(-c3ccc(C#N)cc3)c(-c3ccc4c(c3)oc(=O)n4C)c3nccn23)C1` [Example 134, 4-[5-({(3R)-1-[(2S)-2-hydroxypropyl]piperidin-3-yl}methoxy)-8-(3-methyl-2-oxo-2,3-dihydro-1,3-benzoxazol-6-yl)imidazo[1,2-c]pyrimidin-7-yl]benzonitrile] showed an IC50 of no more than 50 nM. `CN1CCC[C@@H](COc2nc(-c3ccc(C#N)cc3)c(-c3ccc4c(c3)OC(C(=O)N(C)C)CO4)c3nccn23)C1` (stereo partly drawn) [Example 76, 7-(7-(4-cyanophcnyl)-5-{[(3R)-1-methylpiperidin-3-yl]methoxy}imidazo[1,2-c]pyrimidin-8-yl)-N,N-dimethyl-2,3-dihydro-1,4-benzodioxine-2-carboxamide] registered an IC50 of no more than 50 nM.

Take `CN(C)C(=O)N(C)Cc1ccc(-c2c(-c3ccc(C#N)cc3)nc(N3CCC(N(C)C)CC3)n3ccnc23)cc1F` [Example 97, N-(4-{7-(4-cyanophenyl)-5-[4-(dimethylamino)piperidin-1-yl]imidazo[1,2-c]pyrimidin-8-yl}-2-fluorobenzyl)-N,N′,N′-trimethylurea]: the IC50 is no more than 50 nM. `CN1CC[C@@H](COc2nc(-c3ccc(C#N)cc3)c(-c3ccc(N(C)C)nc3)c3nccn23)C1` [Example 21, 4-(8-[6-(dimethylamino)pyridin-3-yl]-5-{[(3R)-1-methylpyrrolidin-3-yl]methoxy}imidazo[1,2-c]pyrimidin-7-yl)benzonitrile] registered a half-maximal inhibitory concentration (IC50) of 50 to 500 nM. As for `CN(C)C1CCN(c2nc(-c3ccc(C#N)cc3)c(-c3cnc4c(cnn4C)c3)c3nccn23)CC1` [Example 37, 4-[5-[4-(dimethylamino)piperidin-1-yl]-8-(1-methyl-1H-pyrazolo[3,4-b]pyridin-5-yl)imidazo[1,2-c]pyrimidin-7-yl]benzonitrile], the figure is no more than 50 nM; as for `Cn1ncc2cc(-c3c(-c4ccc(C#N)cc4)nc(OC[C@@H]4CCCN(CCO)C4)n4ccnc34)cnc21` [Example 34, 4-[5-{[(3R)-1-(2-hydroxyethyl)piperidin-3-yl]methoxy}-8-(1-methyl-1H-pyrazolo[3,4-b]pyridin-5-yl)imidazo[1,2-c]pyrimidin-7-yl]benzonitrile], no more than 50 nM; as for `Cc1nc2cc(-c3c(-c4ccc(C#N)cc4)nc(N4CCC(N(C)C)CC4)n4ccnc34)ccc2n1C` [Example 63, 4-[5-[4-(dimethylamino)piperidin-1-yl]-8-(1,2-dimethyl-1H-benzimidazol-5-yl)imidazo[1,2-c]pyrimidin-7-yl]benzonitrile], no more than 50 nM. Consider `CN(C)C1CCN(c2nc(-c3ccc(C#N)cc3)c(-c3ccc(N(C)S(C)(=O)=O)nc3)c3nccn23)CC1` [Example 115, N-(5-{7-(4-cyanophenyl)-5-[4-(dimethylamino)piperidin-1-yl]imidazo[1,2-c]pyrimidin-8-yl}pyridin-2-yl)-N-methylmethanesulfonamide], for which the IC50 is no more than 50 nM. The compound `CN1CCC[C@@H](COc2nc(-c3ccc(C#N)cc3)c(-c3ccc(CO)cc3)c3nccn23)C1` [Example 36, 4-(8-[4-(hydroxymethyl)phenyl]-5-{[(3R)-1-methylpiperidin-3-yl]methoxy}imidazo[1,2-c]pyrimidin-7-yl)benzonitrile] yielded an IC50 of no more than 50 nM. The result for `CN1CCC[C@@H](COc2nc(-c3ccc(C#N)cc3)c(-c3ccc4c(c3)CC(C(=O)N(C)C)O4)c3nccn23)C1` (stereo partly drawn) [Example 20, 5-(7-(4-cyanophenyl)-5-{[(3R)-1-methylpiperidin-3-yl]methoxy}imidazo[1,2-c]pyrimidin-8-yl)-N,N-dimethyl-2,3-dihydro-1-benzofuran-2-carboxamide] reads no more than 50 nM; that for `CN(C)[C@@H]1CCN(c2nc(-c3ccc(C#N)cc3)c(-c3cnc4c(cnn4C)c3)c3nccn23)C1` [Example 38, 4-[5-[(3R)-3-(dimethylamino)pyrrolidin-1-yl]-8-(1-methyl-1H-pyrazolo[3,4-b]pyridin-5-yl)imidazo[1,2-c]pyrimidin-7-yl]benzonitrile], no more than 50 nM; that for `CN1CCC[C@@H](COc2nc(-c3ccc(C#N)cc3)c(-c3ccc(CN(C)S(C)(=O)=O)c(F)c3)c3nccn23)C1` [Example 84, N-[4-(7-(4-cyanophenyl)-5-{[(3R)-1-methylpiperidin-3-yl]methoxy}imidazo[1,2-c]pyrimidin-8-yl)-2-fluorobenzyl]-N-methylmethanesulfonamide], 50 to 500 nM. In turn, `CN(C)C1CCN(c2nc(-c3ccc(C#N)cc3)c(-c3ccc4c(cnn4C)c3)c3nccn23)CC1` [Example 46, 4-[5-[4-(dimethylamino)piperidin-1-yl]-8-(1-methyl-1H-indazol-5-yl)imidazo[1,2-c]pyrimidin-7-yl]benzonitrile] displayed an IC50 of no more than 50 nM. Compound `CCc1ccc(-c2c(-c3ccc(C#N)cc3)nc(OC[C@@H]3CCCN(C)C3)n3ccnc23)cn1` [Example 107, 4-(8-(6-ethylpyridin-3-yl)-5-{[(3R)-1-methylpiperidin-3-yl]methoxy}imidazo[1,2-c]pyrimidin-7-yl)benzonitrile] had an IC50 of 50 to 500 nM.

`CN(C)C1CCN(c2nc(-c3ccc(C#N)cc3)c(-c3ccc4c(c3)C(O)CC4)c3nccn23)CC1` (centres unmarked) [Example 121, 4-[5-[4-(dimethylamino)piperidin-1-yl]-8-(3-hydroxy-2,3-dihydro-1H-inden-5-yl)imidazo[1,2-c]pyrimidin-7-yl]benzonitrile] returned an IC50 of no more than 50 nM.
